Source: paper PMC8545353 (ACS chemical biology, 2021)
Converted amounts (≈) assume the structure as drawn. Non-standard residues stand in square brackets, D forms with d. Residues, ends and D or L forms follow the SMILES beside them. NMeY = CN[C@@H](Cc1ccc(O)cc1)C(=O)O; dNMeF = CN[C@H](Cc1ccccc1)C(=O)O; Sar = CNCC(=O)O

Experiment: physchem
Conditions: aqueous

CC[C@H](C)[C@@H]1NC(=O)[C@H](Cc2ccc(O)cc2)N(C)C(=O)[C@H](Cc2ccccc2)NC(=O)CN(C)C(=O)[C@@H]2CCCN2C(=O)[C@@H](Cc2ccccc2)N(C)C(=O)[C@H](CC(C)C)NC1=O [Compound 1, cordyheptapeptide A] (cyclo(F[NMeY]IL[dNMeF]P[Sar]))
solubility: 3.9 µM (≈ 3.43 µg/mL)
